Test results from patent publication US20160274087A1, “SCREENING ASSAY FOR AGENTS THAT INFLUENCE BETA CELL NUMBER AND/OR PHENOTYPE” (VRIJE UNIVERSITEIT BRUSSEL, priority 2013, published 2016).

Legend:
[1] = test system: alloxan-diabetic mice; experiment: Implantation of in vitro expanded beta cells in alloxan-diabetic mice; type: in vivo
Experimental: FIG. 8. Alloxan-induced diabetes in mice can be reversed with implantation of in vitro-generated beta cells. Sorted beta cells were cultured in control medium or in the presence of HC up to day 9 and then switched to basal condition for the last six days of culture. IPGTT was used to determine glucose clearance rate. Glucose was administered (3 g/kg body weight) by in intraperitoneal injection into a 2 h-fasted animals and blood glucose levels were measured at the indicated time points during the following 120-min. Data are from animals transplanted with control cells (black triangles; n=3), in vitro expanded cells (black squares; n=5) and normal control animals (inverted triangles; n=2).
In this respect was it relevant to adjust culture conditions so that the expanded beta cell mass was not degranulated. We compared the in vivo function and hormone reserve of implants that were formed by equal numbers of beta cells collected from either control or HC-treated preparations, HC being withdrawn for the last 6 days (as in Table 7). At the end of 15 days culture, cell yield after HC was 54 to 110 percent higher than in control (paired cultures from three different islet isolation experiments), thus allowing preparation of more grafts per experiment. Respective grafts contained a similar number of beta cells and a similar total hormone content (for the three experiments between 10 to 15 μg insulin per graft). […] Both also presented an equally rapid normalization of glycemia following an intraperitoneal glucose load with similar kinetics to normal control animals (FIG. 8).

[2] = target: T1, glucocorticoid receptor (GR) (Homo sapiens, UniProt P04150); conditions: cited from earlier work
T1 sequence (P04150 1-777): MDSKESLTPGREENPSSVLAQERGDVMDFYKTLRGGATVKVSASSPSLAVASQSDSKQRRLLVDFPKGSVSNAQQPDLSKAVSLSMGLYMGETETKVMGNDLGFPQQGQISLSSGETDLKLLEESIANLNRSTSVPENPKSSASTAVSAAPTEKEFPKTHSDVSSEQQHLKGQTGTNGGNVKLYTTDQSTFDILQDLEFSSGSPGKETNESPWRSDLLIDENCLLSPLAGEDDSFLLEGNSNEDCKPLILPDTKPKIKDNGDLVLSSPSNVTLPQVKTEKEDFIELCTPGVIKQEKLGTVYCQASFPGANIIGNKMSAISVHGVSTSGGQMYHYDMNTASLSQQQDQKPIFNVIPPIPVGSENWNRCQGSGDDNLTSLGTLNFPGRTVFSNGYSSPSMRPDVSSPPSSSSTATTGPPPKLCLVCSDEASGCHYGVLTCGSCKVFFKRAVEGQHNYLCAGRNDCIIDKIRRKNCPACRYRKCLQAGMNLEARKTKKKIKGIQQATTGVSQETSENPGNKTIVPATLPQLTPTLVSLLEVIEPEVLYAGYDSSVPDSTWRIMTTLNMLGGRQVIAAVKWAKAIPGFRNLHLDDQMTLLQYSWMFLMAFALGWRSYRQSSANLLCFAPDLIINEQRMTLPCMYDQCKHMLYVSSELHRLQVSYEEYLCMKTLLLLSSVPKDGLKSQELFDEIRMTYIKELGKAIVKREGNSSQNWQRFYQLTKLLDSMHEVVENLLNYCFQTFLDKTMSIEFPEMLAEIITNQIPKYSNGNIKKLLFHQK

C[C@]12CCC(=O)C=C1CC[C@@H]1[C@@H]2[C@@H](O)C[C@@]2(C)[C@H]1CC[C@]2(O)C(=O)CO [Hydrocortisone, hydrocortisone]
circulating C-peptide level at week 1 post-transplantation ([1]; HC group grafts, control 2.3±0.2): 2.4 ± 0.2 nM | circulating C-peptide level at week 5 post-transplantation ([1]; HC group grafts, control 2.6±0.2): 2.6 ± 0.4 nM | Insulin Content, Pancreas ([1]; animals transplanted with cells from proliferation condition (HC up to day 9, then control medium)): 0.7 ± 0.2 μg/sample | Insulin Content, Graft ([1]; animals transplanted with cells from proliferation condition (HC up to day 9, then control medium), post-transplantation week 4): 7.2 ± 1.3 μg/sample | correction of hyperglycemia after implantation ([1]; grafts of HC-treated beta cells in abdominal fat pad): corrected hyperglycemia within one week | Relative Potencies GR [2]: 1
